Measured values reported in the supplement of paper PMC11061612.

Tests used:
[1] = test system: COLO-829 (Melanoma); experiment: Bliss excess, mean over the matrix (fraction); higher = more synergy
In short: (§1)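 Cell lines grown in DMEM/F12 or RPMI with 10% FBS were plated in 1536-well plates and held 24 hours at 37°C, 5% CO2 before 72 hours of exposure to two-drug dose matrices, with DMSO typically at 0.2%. CellTiter-Glo 2.0 luminescence gave viability, which was converted to inhibition. Vehicle wells were set to 0 and blank wells to 1. Combination Emax is the second-highest inhibition in the matrix, and Bliss excess is the observed combination effect minus the expected EA + EB − EA·EB, where EA and EB are the single-agent effects.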

[2] = test system: CTB-1 (B-Cell Non-Hodgkin's Lymphoma); experiment: as above
In short: as §1

[3] = test system: RPMI-6666 (Non-Cancerous); experiment: as above
In short: as §1

[4] = test system: SH-4 (Melanoma); experiment: as above
In short: as §1

[5] = test system: CAL-51 (Breast Carcinoma); experiment: combination Emax (second highest fraction inhibited in the dose matrix, 72 h); higher = more inhibition; extreme values may be limits of the assay
In short: as §1

[6] = test system: COLO-829 (Melanoma); experiment: as above
In short: as §1

[7] = test system: HCC-15 (Squamous Cell Lung Carcinoma); experiment: as above
In short: as §1

[8] = test system: HDLM-2 (Hodgkin's Lymphoma); experiment: as above
In short: as §1

[9] = test system: Hs-633T (Other Solid Carcinomas); experiment: as above
In short: as §1

[10] = test system: KARPAS-231 (B-Cell Non-Hodgkin's Lymphoma); experiment: as above
In short: as §1

[11] = test system: LoVo (Colorectal Carcinoma); experiment: as above
In short: as §1

[12] = test system: NCI-H2461 (Mesothelioma); experiment: as above
In short: as §1

[13] = test system: NCI-H69 (Small Cell Lung Carcinoma); experiment: as above
In short: as §1

[14] = test system: OC-314 (Ovarian Carcinoma); experiment: as above
In short: as §1

[15] = test system: RT-112 (Bladder Carcinoma); experiment: as above
In short: as §1

[16] = test system: SH-4 (Melanoma); experiment: as above
In short: as §1

[17] = test system: SK-OV-3 (Ovarian Carcinoma); experiment: as above
In short: as §1

[18] = test system: SU-DHL-6 (B-Cell Non-Hodgkin's Lymphoma); experiment: as above
In short: as §1

[19] = test system: SUP-T1 (T-Lymphoblastic Leukemia); experiment: as above
In short: as §1

[20] = test system: TE-4 (Esophageal Squamous Cell Carcinoma); experiment: as above
In short: as §1
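For Bliss excess, mean over the matrix in this document: after 72 h of two-drug dosing.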

SMILES	Bliss excess [1]	Bliss excess [2]	Bliss excess [3]	Bliss excess [4]	combination Emax [5]	combination Emax [6]	combination Emax [7]	combination Emax [8]	combination Emax [9]	combination Emax [10]	combination Emax [11]	combination Emax [12]	combination Emax [13]	combination Emax [14]	combination Emax [15]	combination Emax [16]	combination Emax [17]	combination Emax [18]	combination Emax [19]	combination Emax [20]
Cc1c2c(nn1C)CSCc1cc(n(C)n1)CSc1cc(c3ccccc3c1)OCCCc1c(C(=O)O)n(C)c3c-2c(Cl)ccc13 [AZD5991] + C=CCn1c(=O)c2cnc(Nc3ccc(N4CCN(C)CC4)cc3)nc2n1-c1cccc(C(C)(C)O)n1 [AZD1775] (first compound max 1 µM, partner max 1 µM)	-0.0169	-0.0417	0.0122	0.101	0.915	0.291	0.55	1	0.711	1	0.856	0.712	0.266	0.554	0.981	0.616	0.597	1	0.847	0.801
CC1(C)CCC(CN2CCN(c3ccc(C(=O)NS(=O)(=O)c4ccc(NCC5CCOCC5)c([N+](=O)[O-])c4)c(Oc4cnc5[nH]ccc5c4)c3)CC2)=C(c2ccc(Cl)cc2)C1 [Venetoclax] + C[C@@H](Nc1cc(F)cc(F)c1)c1cc(C(=O)N(C)C)cc2c(=O)cc(N3CCOCC3)oc12 [AZD8186] (first compound max 1 µM, 7x7, partner max 3 µM)	-0.0019	-0.0261	0.0617	-0.0214	0.0234	0.243	0.173	0.436	0.186	0.792	0.494	0.447	0.697	0.242	0.472	0.192	0.433	1	0.461	0.0248
CC1(C)CCC(CN2CCN(c3ccc(C(=O)NS(=O)(=O)c4ccc(NCC5CCOCC5)c([N+](=O)[O-])c4)c(Oc4cnc5[nH]ccc5c4)c3)CC2)=C(c2ccc(Cl)cc2)C1 [Venetoclax] + Cn1cnc2c(F)c(Nc3ccc(Br)cc3Cl)c(C(=O)NOCCO)cc21 [Selumetinib] (first compound max 1 µM, 7x7, partner max 3 µM)	-0.0392	-0.0475	0.0306	-0.0306	0.214	0.426	0.438	0.296	0.228	0.812	0.374	0.444	0.302	0.134	0.304	0.872	0.137	0.88	0.426	0.114
Cc1cc2ncnn2cc1Nc1ncc2c(n1)n(C1CCOCC1)c(=O)n2C [AZD7648] + C=CCn1c(=O)c2cnc(Nc3ccc(N4CCN(C)CC4)cc3)nc2n1-c1cccc(C(C)(C)O)n1 [AZD1775] (first compound max 10 µM, partner max 1 µM)	-0.0047	-0.0542	-0.0687	0.0332	0.864	0.214	0.345	0.585	0.748	0.979	0.732	0.659	0.389	0.567	0.742	0.447	0.535	0.753	0.834	0.431
Cc1c2c(nn1C)CSCc1cc(n(C)n1)CSc1cc(c3ccccc3c1)OCCCc1c(C(=O)O)n(C)c3c-2c(Cl)ccc13 [AZD5991] + C[C@@H]1COCCN1C2=NC(=NC(=C2)C3(CC3)[S@](=N)(=O)C)C4=C5C=CNC5=NC=C4 [AZD6738] (first compound max 1 µM, 7x7, partner max 10 µM)	0.0471	-0.0314	0.0272	0.0323	0.899	0.532	0.297	0.992	0.938	1	0.889	0.765	0.335	0.832	0.958	0.422	0.556	1	0.741	0.773
CN(CCO)CC[C@H](CSc1ccccc1)Nc1ccc(S(=O)(=O)NC(=O)c2ccc(N3CCC([C@@H](O)c4ccccc4-c4ccc(Cl)cc4)CC3)cc2)cc1S(=O)(=O)C(F)(F)F [AZD4320] + C[C@@H]1COCCN1C2=NC(=NC(=C2)C3(CC3)[S@](=N)(=O)C)C4=C5C=CNC5=NC=C4 [AZD6738] (first compound max 1 µM, 7x7, partner max 10 µM)	-0.0409	-0.0791	-0.0271	-0.0411	0.919	0.213	0.94	0.926	0.946	1	0.838	0.838	0.927	0.909	0.863	0.409	0.66	0.951	0.858	0.691
CN(C)CCCOc1ccc(-c2ccc3ncc4c(c3c2)n(C2CCOCC2)c(=O)n4C)cn1 [AZD0156] + C[C@@H]1COCCN1C2=NC(=NC(=C2)C3(CC3)[S@](=N)(=O)C)C4=C5C=CNC5=NC=C4 [AZD6738] (first compound max 1 µM, 7x7, partner max 10 µM)	-0.0327	-0.063	-0.0187	0.0052	0.95	0.159	0.146	0.376	0.925	0.904	0.867	0.71	0.448	0.869	0.919	0.465	0.617	0.629	0.78	0.604
CC(=O)Nc1cccc(-n2c(=O)n(C3CC3)c(=O)c3c(Nc4ccc(I)cc4F)n(C)c(=O)c(C)c32)c1 [Trametinib] + Cc1nc(-c2cn3c(n2)-c2ccc(-c4cnn(C(C)(C)C(N)=O)c4)cc2OCC3)n(C(C)C)n1 [Taselisib] (first compound max 1 µM, 7x7, partner max 10 µM)	0.234	0.0136	0.0351	0.0172	0.886	0.942	0.987	0.362	0.917	0.149	0.708	0.587	0.688	0.707	0.884	0.999	0.797	1	0.596	1
CC1(C)CCC(CN2CCN(c3ccc(C(=O)NS(=O)(=O)c4ccc(NCC5CCOCC5)c([N+](=O)[O-])c4)c(Oc4cnc5[nH]ccc5c4)c3)CC2)=C(c2ccc(Cl)cc2)C1 [Venetoclax] + C1CN(CCC1(C(=O)N[C@@H](CCO)C2=CC=C(C=C2)Cl)N)C3=NC=NC4=C3C=CN4 [Capivasertib] (first compound max 1 µM, 7x7, partner max 3 µM)	-0.045	-0.045	0.0217	-0.0592	0.487	0.16	0.232	0.514	0.177	0.796	0.454	0.528	0.802	0.316	0.192	0.208	0.353	0.995	0.757	0.564
CCc1c2c(nc3ccc(O)cc13)-c1cc3c(c(=O)n1C2)COC(=O)[C@]3(O)CC [SN-38] + CN(C)CCCOc1ccc(-c2ccc3ncc4c(c3c2)n(C2CCOCC2)c(=O)n4C)cn1 [AZD0156] (first compound max 0.3 µM, 7x7, partner max 1 µM)	-0.0257	-0.0393	-0.0196	-0.0552	0.728	0.497	0.879	0.341	0.838	1	0.727	0.639	0.738	1	0.797	0.27	0.517	0.987	0.853	0.402
CC1(C)CCC(CN2CCN(c3ccc(C(=O)NS(=O)(=O)c4ccc(NCC5CCOCC5)c([N+](=O)[O-])c4)c(Oc4cnc5[nH]ccc5c4)c3)CC2)=C(c2ccc(Cl)cc2)C1 [Venetoclax] + C[C@@H]1COCCN1C2=NC(=NC(=C2)C3(CC3)[S@](=N)(=O)C)C4=C5C=CNC5=NC=C4 [AZD6738] (first compound max 1 µM, 7x7, partner max 10 µM)	0.0059	-0.0184	0.0224	-0.022	0.909	0.349	0.191	0.683	0.763	1	0.767	0.725	0.618	0.897	0.842	0.304	0.573	0.92	0.821	0.617
CN(CCO)CC[C@H](CSc1ccccc1)Nc1ccc(S(=O)(=O)NC(=O)c2ccc(N3CCC([C@@H](O)c4ccccc4-c4ccc(Cl)cc4)CC3)cc2)cc1S(=O)(=O)C(F)(F)F [AZD4320] + CCN(CCO)CCCOc1ccc2c(Nc3cc(CC(=O)Nc4cccc(F)c4)[nH]n3)ncnc2c1 [AZD2811] (first compound max 1 µM, 7x7, partner max 1 µM)	-0.0465	-0.0596	0.17	-0.0236	0.615	0.196	0.966	0.924	0.54	1	0.317	0.174	0.896	0.804	0.913	0.181	0.178	0.958	0.545	0.0998
